Several values for one entry are separate records, joined by “and”; a condition that tells them apart may be missing. Equal values may be shown once.

Series [1] relates to α-synuclein toxicity. Put plainly: S. cerevisiae α-synuclein toxicity model, growth assay. As to conditions: WT α-synuclein-EGFP strain; 50 μM. Format: cell-based. The protocol: To screen small molecule library LOPAC1280 in S. cerevisiae SNCA toxicity model, working plates containing 50 μM drugs in 1.5% DMSO (190 compounds/plate) are prepared in a 384 well format. WT SNCA-GFP with or without small molecules and untreated WT GFP are grown under optimized conditions (80 μl, 30° C. and 420 rpm) for 36 h in a plate reader (Varioskan Flash, Thermo Scientific) in duplicates with automatic absorbance (A600) recording every 20 min. Growth curves of untreated WT GFP and WT SNCA-GFP strains are plotted and mid to late exponential phase time point of untreated WT GFP strain is chosen as reference for data analysis. Its corresponding time point of untreated and drug treated WT SNCA-GFP strains are plotted separately in a box plot. Small molecules that rescued the growth lag by ≥3 SD units of untreated WT SNCA-GFP strain are considered as ‘Hits’.
Growth assays: In a 384 well plate, appropriate yeast strains are seeded (A600˜0.07) with and without drugs and incubated (80 μl, 30° C. and 420 rpm) in a multiplate reader (Varioskan Flash, Thermo Scientific) for 48 h with automatic absorbance (A600) recording every 20 min. Growth curves are plotted and analyzed using GraphPad Prism.
Induction of α-synuclein-EGFP aggregates: To induce α-synuclein-EGFP aggregates, the corresponding strains are inoculated in SD-Ura medium, Secondary culture is inoculated from primary inoculum and incubated till A600 reaches 0.8/ml. Cells are washed twice with sterile water and aggregates are induced by adding SG-Ura for 12-16 h.
To screen small molecule library LOPAC^1280 in S. cerevisiae α-synuclein toxicity model, working plates containing 50 μM drugs (small molecule) in 1.5% DMSO (190 compounds/plate) are prepared in a 384 well format. WT α-synuclein-EGFP with and without small molecules and untreated WT EGFP are grown under optimized conditions (80 μl, 30° C. and 420 rpm) for 36 h in a plate reader (Varioskan Flash, Thermo Scientific) in duplicates with automatic absorbance (A600) recording every 20 min.
Growth curves of untreated WT EGFP and WI α-synuclein-EGFP strains are plotted and mid to late exponential phase time point of untreated WT EGFP strain is chosen as reference for data analysis. Its corresponding time point of untreated and drug treated WT α-synuclein-EGFP strains are plotted separately in a box plot.
Appropriate yeast strains are seeded (A600 ˜0.07) with or without drugs in a 384-well plate and incubated (420 rpm, 30° C. and 80 μl) in a multiplate reader (Varioskan Flash, Thermo Scientific) for 48 h that records absorbance (A600) automatically for every 20 min. Growth curves are plotted using GraphPad Prism.

Series [2] deals with DAergic neurons in SNpc. The series is described as follows: MPTP mouse model: LC3 and A11 puncta in DAergic neurons of SNpc. Format: in vivo. The following applies: MPTP treated cohort. The method, then:
The sequential immunolabeling procedure is used to co-label the TH and LC3 and/or A11. First, the midbrain sections are equilibrated with 0.1 M PBS (pH 7.4) for 10 min and then incubated with buffered bovine serum albumin (3%) for 4 h to block non-specific epitopes. Then, the sections are incubated in rabbit anti-LC3 antibody (1:1000) and/or anti-oligomer antibody (A11, 1:1000) for 72 h at 4° C. After subsequent washes, the sections are incubated in corresponding fluorescent secondary antibody (1:200) at 4° C., overnight.
Co-labeling with TH is performed on the same sections using rabbit anti-TH antibody (1:500), followed by secondary labeling. PBST (0.01 M, pH 7.4) is used as both working and washing buffer. Sections are then mounted using Vectashield hardset mounting medium.

For series [3], the system named is TH+ dopaminergic neurons in SNpc. Put plainly: MPTP mouse model: TH+ dopaminergic neurons in SNpc (stereology, densitometry, volume). Format: in vivo, mice. The method, then:
As described by Vernice Jackson-Lewis & Serge Przedborski (2007), 23.4 mg/kg MPTP.HCl (equivalent to 20 mg/kg free base) in 10 ml/kg body wt. of saline is administered intraperitoneally (i.p.) for 4 times at 2 h intervals.
All mice are sacrificed 9 days post MPTP administration and brains are processed for immunohistochemistry.
Mice are anaesthetized using Halothane BP (Piramal Healthcare) inhalation and perfused intracardially with normal saline followed by 4% PFA in 0.1 M phosphate buffer, pH 7.4. Brains are removed quickly and post-fixed with 4% PFA for 24 h-48 h at 4° C. Following cryoprotection in 15% and 30% sucrose, 40 μm thick coronal cryosections of midbrain are collected serially on gelatinized slides. Immunoperoxidase labelling protocol as identical to that reported. Briefly, endogenous peroxidase is quenched using H2O2 (0.1%) in methanol (70%), followed by blocking of non-specific staining by buffered solution (3%) of bovine serum albumin for 4 h at room temperature. Sections are incubated with TH primary antibody (1:500) followed by biotin conjugated secondary antibody (1:200 dilution, Vector Laboratories). Tertiary labelling is performed with avidin-biotin complex solution (1:100, Vector Laboratories). Staining is visualized using 3′-3′-diaminobenzidine (0.05%) as a chromogen in a solution of 0.1M acetate imidazole buffer (pH 7.4) and H2O2 (0.1%). Negative controls are processed identically, except that primary antibody is replaced with dilution buffer.
As described by Y. Fu et al., SNpcis delineated using the 4× objective of Olympus BX61 Microscope (Olympus) equipped with Stereo Investigator Software Version 7.2 (MicroBrightField). Stereological quantification is performed using optical fractionator probe with slight modifications(P. A. Alladi et al.). Briefly, every sixth midbrain section containing SNpc is chosen and TH^+ cells are counted under 100× objective, with a regular grid interval of 22500 μm^2 (x=150 μm, y=150 μm) and counting frame with an area of 3600 μm^2 (x=60 μm, y=60 μm) (FIG. 10B). Mounted thickness is determined at every fifth site, averaging to 25 μm. Guard zone 4 μm is applied on either side, thus providing 17 μm of z-dimension within optical dissector. The quantification is performed starting with first anterior appearance of TH^+ neurons in SNpc to caudal most part. The SNpc volume is determined by planimetry (FIG. 10C) and total numbers of neurons according to mean measured thickness are noted.
High magnification images of TH stained nigral DAergic neurons, captured for offline assessment of Tyrosine Hydroxylase (TH) enzyme expression levels=used. Expression intensity is measured using a Windows based image analysis system (Q Win V3, Leica Systems). Cumulative mean is derived from the values obtained from sampling, approximately 200 DAergic neurons per animal. Intensity output is measured on a grey scale of 0-255, where 0 equals intense staining and 255 means absence of staining.
The mice are distributed into three groups' viz., vehicle, MPTP and MPTP+XCT 790 injected respectively. The vehicle group receives intraperitoneal injections of dimethyl sulfoxide (DMSO) injections i.e. the solvent. The MPTP group receives 23.4 mg/kg MPTP.HCl in 10 ml/kg body wt. of saline is administered intraperitoneally for 4 times at 2 h interval. The MPTP+XCT 790 group mice are injected with 5 mg/kg body wt, of XCT 790 dissolved in DMSO, alongside the first MPTP injection. […]

Series [4] relates to lace plant (Aponogeton madagascariensis) cells. Put plainly: Lace plant leaf MDC staining of punctate structures. Type of series: cell-based. The following applies: 2 hours; 5 μM wortmannin, 50 μM Bay11, 1 μM concanamycin A, rapamycin, 50 μM ZPCK; control 0.99±0.12. The protocol: Axenic lace plant cultures are grown in magenta boxes and prepared according to Gunawardena et al. Leaves in the window stage are removed from the corm and rinsed thoroughly with distilled water prior to being sectioned into 2 mm^2 pieces. For starvation treatments, window stage leaves are removed from the plant, placed in distilled water and kept in the dark overnight.
Leaf sections are stained with monodansylcadaverine (MDC; 300 μM) (Sigma, D4008) and simultaneously treated with autophagy modulators for 2 hours in the dark. (1 hour vacuum infiltration at 15 psi). Treatment times, along with stain and modulator applications are optimized using concentration gradients followed by microscopy. The optimized concentrations are 5 μM rapamycin (Enzo Life Sciences (BML A275-0005), 5 μM wortmannin (Santa Cruz Biotechnology, sc-3505), 1 μM concanamycin A (Santa Cruz Biotechnology, sc-202111), 50 μM Bay 11 (Sigma, B5556) and 50 μM ZPCK (Sigma, 860794).
Tissue sections are then rinsed and mounted in distilled water prior to being scanned using a Nikon Eclipse Ti confocal microscope (Nikon 40X/1.30, Plan Fluor, 405 nm excitation and 450/30 nm emission). Areoles in the early phases of PCD are scanned to avoid cellular debris. The mean number of puncta are quantified for each treatment group with a minimum of four independent experiments using NIS Elements Advanced Research software. Additionally, starvation treatment leaves are also exposed to 5 μM, wortmannin, 50 μM Bay11 and 50 μM ZPCK treatments and then qualitatively assessed via confocal microscopy.

The subject of series [5] is Atg8. Put plainly: Atg8 immunolocalization in lace plant. Format: cell-based, Aponogeton madagascariensis. The following applies: two hours; same modulator concentrations as MDC; control 0.90±0.08. The method, then: Whole leaves are treated for two hours prior to fixation in 100% Methanol at 37° C. and then hydrophilized to 20% methanol by adding distilled water at 60° C. every two minutes for 32 minutes. Samples are then sectioned and placed on a multiwall slide and allowed to air dry for 10 minutes to facilitate membrane permeabilization. Blocking is done for 30 minutes at 37° C. with 4% low fat milk powder in 1× microtubule stabilization buffer MTSB (Modified 2× MTSB stock solution: 15 g PIPES, 1.9 g EDTA, 1.22 g MgSO4*7H2O and 2.5 g KOH—pH 7.0). Primary antibody incubation for anti-rabbit ATG8 (Agrisera, AS14 2769) is done at a 1:1000 dilution in 1× MTSB for 30 minutes at 37° C. Samples are then washed for 5 minutes, 3 times with 1× MTSB. Secondary antibody incubation with Goat anti-rabbit Dylight 488 (Agrisera AS09 633) at a 1:2000 dilution in 1× MTSB is done for 30 minutes at 37° C. and then samples are rinsed as above. Tissues are mounted in Mowiol 4-88 solution (Sigma, 81381) and scanned via confocal microscopy as mentioned above. The mean number of puncta per cell is determined using maximum intensity projections (MIPs) for each replicate. The total number of cells within a field of view are counted manually and the number of puncta are counted automatically using ImageJ.

For the molecule `N#C/C(=C\c1ccc(-c2cc(Cl)ccc2Cl)o1)C(=O)Nc1cccc2ncccc12` [Agk2, reference compound], the “rescue of growth lag due to α-synuclein toxicity” value in series [1] is “rescue growth lag”.

For `CN1CC=C(c2ccccc2)CC1` [MPTP, methyl-4-phenyl-1,2,3,6-tetrahydropyridine, reference compound], in series [2], the “increase of A11 puncta / aggregates, placebo/vehicle vs MPTP” value was ~7 fold and ~6.5 fold. In addition, in series [3] (MPTP 23 mg/kg), the “reduction in number and health of DA neurons, compared to control” value was roughly 3 fold. In addition, the “dopaminergic neurons in SNpc lost, MPTP vs Vehicle” value in series [3] (MPTP 23.4 mg/kg, 4 times) is reported as roughly 68%.

With `C/C=C/[C@H]1O[C@@](O)([C@@H](C)[C@H](O)[C@H](C)[C@H]2OC(=O)/C(OC)=C/C(C)=C/[C@@H](C)[C@@H](O)[C@@H](CC)[C@@H](O)[C@H](C)C/C(C)=C/C=C/[C@@H]2OC)C[C@@H](O[C@H]2C[C@@H](O)[C@H](OC(N)=O)[C@@H](C)O2)[C@@H]1C` [concanamycin A], the “mean number of punctate structures per cell (MDC)” value (from here on “mean number … per cell (MDC)”) in series [4] amounted to 1.91±0.13. In series [5], the “mean number of Atg8 puncta per cell” value was 2.43±0.29.

Take `CO[C@H]1C[C@@H]2CC[C@@H](C)[C@@](O)(O2)C(=O)C(=O)N2CCCC[C@H]2C(=O)O[C@H]([C@H](C)C[C@@H]2CC[C@@H](O)[C@H](OC)C2)CC(=O)[C@H](C)/C=C(\C)[C@@H](O)[C@@H](OC)C(=O)[C@H](C)C[C@H](C)/C=C/C=C/C=C/1C` [rapamycin]: the “mean number … per cell (MDC)” value in series [4] was 2.31±0.25. The “mean number of Atg8 puncta per cell” value in series [5] is reported as 3.52±0.09.

In the case of `COC[C@H]1OC(=O)c2coc3c2[C@@]1(C)C1=C(C3=O)[C@@H]2CCC(=O)[C@@]2(C)C[C@H]1OC(C)=O` [wortmannin], the “mean number … per cell (MDC)” value in series [4] came to 0.26±0.03. In addition, the “mean number of Atg8 puncta per cell” value in series [5] is given as 0.27±0.025.

The values are drawn from US20180369186A1, “METHOD FOR MODULATING AUTOPHAGY AND APPLICATIONS THEREOF” (JAWAHARLAL NEHRU CENTRE FOR ADVANCED SCIENTIFIC RESEARCH, priority 2015, published 2018).
